“And” between values parts separate entries of the source, which are not always exact repeats. Identical values can stand only once.
Tested on: 699152-130-R-J1-PDC complex spheroid viability
Experiment: Anticancer human tumor 699152-130-R-J1-PDC patient-derived pancreatic carcinoma cell line growth inhibition [POLQ]
Settings: for viability, T/C: stronger effect = lower value
Experimental: Multicellular complex tumor spheroid response to Polymerase (POL) inhibitors (novobiocin, ART-558, RP6685) in combination with a variety of drugs and investigational agents in selected tumor cell lines
The POL inhibitors (novobiocin, ART-558, and RP6685) were evaluated both individually and in combination with standard of care and investigational anticancer small molecules within a complex spheroid model of solid tumors. . Complex spheroids include a stromal component modeled by human endothelial cells (HUVEC) and fibroblasts modeled by human mesenchymal stem cells (MSCs). The concentration ranges selected for each drug and investigational agent were based upon clinically achievable concentrations if the clinical Cmax of the agent was known.
Compounds. The drugs and investigational agents: novobiocin (NSC847541), ART-558 (NSC835418), RP-6685 (NSC848927), peposertib (NSC802822), ceralasertib (NSC780249), elimusertib (NSC800525), camonsertib (NSC841442), AZD-1390 (NSC803789), olaparib (NSC753686), talazoparib (NSC767125), rucaparib (NSC756644), sotorasib (NSC818433), MRTX-1133 (NSC836407), SN-38 (NSC673596), topotecan (NSC609699), epotoside (NSC141540), doxorubicin (NSC123127), gemcitabine (NSC613327), 5-fluorouracil (NSC19893), paclitaxel (NSC125973), vemurafenib (NSC761431), MSA-2 (NSC828583), SN-011 (NSC837082), adavosertib (NSC754352), prexasertib (NSC758257), carboplatin (NSC241240) and oxaliplatin (NSC266046), were obtained from the National Cancer Institute (NCI) Developmental Therapeutics Program Chemical Repository (21). The FDA-approved anticancer drug set is available from the Developmental Therapeutics Program at https://dtp.cancer.gov/organization/dscb/obtaining/. […] The stock solutions were prepared in dimethyl sulfoxide (DMSO, Sigma-Aldrich, St. Louis, MO, cat. D2650), except for the platinum compounds which were prepared in saline (Quality Biological, Gaithersburg, MD, cat. 114-055-101), at 800-fold the tested concentration and stored at -70 degrees C prior to their use. All drugs and investigational agents were tested over a range starting from a high concentration at or near the clinical Cmax and decreasing in half-log increments. If the clinical Cmax for an agent had not been determined, the highest concentration tested was 10 microM, except for SN-38, which was tested at a high concentration of 1 microM.
Cell Culture. All cells were maintained in an incubator at 37 degrees C and 5% CO2 with 95% humidity. The PDC lines were cultured according to standard operating procedures established by the NCI PDMR (https://pdmr.cancer.gov). Table 3 of the manuscript, lists the cell lines along with the number of the three cell types plated to form the mct-spheroids and media for tumor cell growth. After thawing, all PDC lines, except 997537-175-T-J1-PDC and 415267-285-R-J2-PDC, were cultured in Matrigel-coated flasks prepared with a working solution of 1X Ham's F-12 nutrient mix, without supplementation (Thermo Fisher Scientific, cat. 11765054), 100 U/mL penicillin-streptomycin (Thermo Fisher Scientific, cat. 15140122), and 2.5% Matrigel (Corning Inc., Corning, NY, cat. 354248) for the first three passages. The two PDC lines 997537-175-T-J1-PDC and 415267-285-R-J2-PDC were cultured on uncoated flasks. The 857933-349-R-J2-PDC line was cultured in 6C/Colon 1B media containing advanced DMEM/F-12 (Thermo Fisher Scientific, cat. 12634028), 10 mM HEPES (Thermo Fisher Scientific, cat. 15630080), 1X GlutaMAX supplement (Thermo Fisher Scientific, cat. 35050061), 0.1 mg/mL primocin (InvivoGen, San Diego, CA, cat. ant-pm-2), 10% defined fetal bovine serum, heat inactivated (HyClone Laboratories Inc., Logan, UT, cat. SH30070.03HI), 50% L-WRN conditioned media (ATCC, cat. CRL-3276), 1.25 mM N-Acetyl-L-cysteine (Sigma-Aldrich, cat. A9165), 10 mM nicotinamide (Sigma-Aldrich, cat. N0636), 1X B-27 supplement (Thermo Fisher Scientific, cat. 17504044), 1X N-2 supplement (Thermo Fisher Scientific, cat. […]

[1] = curve of first compound, second compound 0.0316 µM
[2] = curve of first compound, second compound 0.1 µM
[3] = curve of first compound, second compound 0.316 µM
[4] = curve of first compound, second compound 1 µM
[5] = curve of first compound, second compound 3.16 µM
[6] = curve of first compound, second compound 10 µM
[7] = second compound 0.0316 µM, first compound 0.0316 µM
[8] = second compound 0.0316 µM, first compound 0.1 µM
[9] = second compound 0.0316 µM, first compound 0.316 µM
[10] = second compound 0.0316 µM, first compound 1 µM
[11] = second compound 0.0316 µM, first compound 3.16 µM
[12] = second compound 0.0316 µM, first compound 10 µM
[13] = second compound 0.1 µM, first compound 0.0316 µM
[14] = second compound 0.1 µM, first compound 0.1 µM
[15] = second compound 0.1 µM, first compound 0.316 µM
[16] = second compound 0.1 µM, first compound 1 µM
[17] = second compound 0.1 µM, first compound 3.16 µM
[18] = second compound 0.1 µM, first compound 10 µM
[19] = second compound 0.316 µM, first compound 0.0316 µM
[20] = second compound 0.316 µM, first compound 0.1 µM
[21] = second compound 0.316 µM, first compound 0.316 µM
[22] = second compound 0.316 µM, first compound 1 µM
[23] = second compound 0.316 µM, first compound 3.16 µM
[24] = second compound 0.316 µM, first compound 10 µM
[25] = second compound 1 µM, first compound 0.0316 µM
[26] = second compound 1 µM, first compound 0.1 µM
[27] = second compound 1 µM, first compound 0.316 µM
[28] = second compound 1 µM, first compound 1 µM
[29] = second compound 1 µM, first compound 3.16 µM
[30] = second compound 1 µM, first compound 10 µM
[31] = second compound 3.16 µM, first compound 0.0316 µM
[32] = second compound 3.16 µM, first compound 0.1 µM
[33] = second compound 3.16 µM, first compound 0.316 µM
[34] = second compound 3.16 µM, first compound 1 µM
[35] = second compound 3.16 µM, first compound 3.16 µM
[36] = second compound 3.16 µM, first compound 10 µM
[37] = second compound 10 µM, first compound 0.0316 µM
[38] = second compound 10 µM, first compound 0.1 µM
[39] = second compound 10 µM, first compound 0.316 µM
[40] = second compound 10 µM, first compound 1 µM
[41] = second compound 10 µM, first compound 3.16 µM
[42] = second compound 10 µM, first compound 10 µM
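Further: spheroids exposed to agents for 7 days before viability reading.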
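Wherever viability, T/C is given: percent of DMSO vehicle control viability so 100% = vehicle and 0% = no viable signal.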

Q: What does the source list for O=C(c1cc(Cc2n[nH]c(=O)c3ccccc23)ccc1F)N1CCN(C(=O)C2CC2)CC1?
A: viability, T/C (compound 0.0316 µM): 101% and 104% and 103%; viability, T/C (compound 0.1 µM): 99.6% and 92.1% and 91.6%; viability, T/C (compound 0.316 µM): 100% and 98% and 95.9%; viability, T/C (compound 1 µM): 93.5% and 90.7% and 103%; viability, T/C (compound 3.16 µM): 91.4% and 87.8% and 91.5%; viability, T/C (compound 10 µM): 71.4% and 59.8% and 88.3%; IC50 (curve of compound): > 10 µM

Q: Which results are given for C=CC(=O)N1CCN(c2nc(=O)n(-c3c(C)ccnc3C(C)C)c3nc(-c4c(O)cccc4F)c(F)cc23)C(C)C1 (stereo unspecified) + Cc1cccc(N(C)C(=O)C2C(O)CCN2c2nc(C)cc(C(F)(F)F)c2C#N)c1?
A: IC50 [1]: > 10 µM; IC50 [2]: > 10 µM; IC50 [3]: > 10 µM; IC50 [4]: > 10 µM; IC50 [5]: > 10 µM; IC50 [6]: > 10 µM; viability, T/C [7]: 92.9%; viability, T/C [8]: 99.6%; viability, T/C [9]: 102%; viability, T/C [10]: 110%; viability, T/C [11]: 113%; viability, T/C [12]: 115%; viability, T/C [13]: 102%; viability, T/C [14]: 89.4%; viability, T/C [15]: 113%; viability, T/C [16]: 93.8%; viability, T/C [17]: 119%; viability, T/C [18]: 105%; viability, T/C [19]: 99.9%; viability, T/C [20]: 103%; viability, T/C [21]: 103%; viability, T/C [22]: 103%; viability, T/C [23]: 114%; viability, T/C [24]: 110%; viability, T/C [25]: 108%; viability, T/C [26]: 89.7%; viability, T/C [27]: 102%; viability, T/C [28]: 113%; viability, T/C [29]: 108%; viability, T/C [30]: 109%; viability, T/C [31]: 92.2%; viability, T/C [32]: 91.3%; viability, T/C [33]: 98.8%; viability, T/C [34]: 105%; viability, T/C [35]: 114%; viability, T/C [36]: 104%; viability, T/C [37]: 103%; viability, T/C [38]: 104%; viability, T/C [39]: 108%; viability, T/C [40]: 109%; viability, T/C [41]: 120%; viability, T/C [42]: 119%

Q: Which IC50 [1] does the source give for CC1COCCN1c1cc(C2(O)CC3CCC(C2)O3)c2cnn(-c3ccn[nH]3)c2n1 (stereo unspecified) + Nc1ccc(C#CCN(C(=O)Cc2ncc(C(F)(F)F)cc2C(F)(F)F)c2ccc(F)cc2)nn1 here?
A: 1.49 µM

Q: And the IC50 [2]?
A: 2.7 µM

Q: What about the IC50 [3] of the same molecule?
A: 1.5 µM

Q: And the IC50 [4]?
A: 1.38 µM

Q: And the IC50 [5]?
A: 1.52 µM

Q: What about the IC50 [6] of the same molecule?
A: 2.21 µM

Q: What about the viability, T/C [7] of the same molecule?
A: 85.6%

Q: What about the viability, T/C [8] of the same molecule?
A: 81.3%

Q: What about the viability, T/C [9] of the same molecule?
A: 60.7%

Q: And the viability, T/C [10]?
A: 56.8%

Q: What about the viability, T/C [11] of the same molecule?
A: 42.5%

Q: What about the viability, T/C [12] of the same molecule?
A: 35.1%

Q: And the viability, T/C [13]?
A: 86.6%

Q: What about the viability, T/C [14] of the same molecule?
A: 79.1%

Q: And the viability, T/C [15]?
A: 68.1%

Q: What about the viability, T/C [16] of the same molecule?
A: 61.3%

Q: And the viability, T/C [17]?
A: 48.6%

Q: What about the viability, T/C [18] of the same molecule?
A: 36.2%

Q: And the viability, T/C [19]?
A: 94.9%

Q: What about the viability, T/C [20] of the same molecule?
A: 85.7%

Q: And the viability, T/C [21]?
A: 66.8%

Q: And the viability, T/C [22]?
A: 53.6%

Q: And the viability, T/C [23]?
A: 44.8%

Q: And the viability, T/C [24]?
A: 35.9%

Q: And the viability, T/C [25]?
A: 104%

Q: What about the viability, T/C [26] of the same molecule?
A: 83.5%

Q: What about the viability, T/C [27] of the same molecule?
A: 67.2%

Q: What about the viability, T/C [28] of the same molecule?
A: 53.2%

Q: And the viability, T/C [29]?
A: 42.5%

Q: And the viability, T/C [30]?
A: 30.6%

Q: And the viability, T/C [31]?
A: 100%

Q: And the viability, T/C [32]?
A: 84.6%

Q: What about the viability, T/C [33] of the same molecule?
A: 65.5%

Q: What about the viability, T/C [34] of the same molecule?
A: 51%

Q: And the viability, T/C [35]?
A: 48.9%

Q: What about the viability, T/C [36] of the same molecule?
A: 40.3%

Q: What about the viability, T/C [37] of the same molecule?
A: 104%

Q: What about the viability, T/C [38] of the same molecule?
A: 90.9%

Q: What about the viability, T/C [39] of the same molecule?
A: 65.2%

Q: And the viability, T/C [40]?
A: 56.8%

Q: What about the viability, T/C [41] of the same molecule?
A: 51.5%

Q: What about the viability, T/C [42] of the same molecule?
A: 37.1%

From PubChem BioAssay AID1963835 (Molecular Pharmacology Branch, DTP, NCI, 2024)
